Where two headings read alike, the source gives them in different places.
Legend:
[1] = system: acute lymphoblastic leukemia cell line Jurkat; assay: Cancer cell proliferation inhibitory activity evaluation 2 (CCK-8), Jurkat; assay type: cell-based; details: Homo sapiens
Fibronectin-1 = assay: Fibrosis inhibition evaluation 2, palmitic acid-induced HepG2, real-time PCR, Fibronectin-1
α-SMA = assay: Fibrosis inhibition evaluation 2, palmitic acid-induced HepG2, real-time PCR, α-SMA; details: palmitic acid-induced HepG2 (Table 8)
TGF-β1 = assay: Fibrosis inhibition evaluation 2, palmitic acid-induced HepG2, real-time PCR, TGF-β1
LRRK2 mutant (G2019S) = LRRK2 mutant (G2019S) (Homo sapiens (Human), UniProt Q5S007, G2019S); assay: Evaluation of inhibitory activity against LRRK2 (affinity bead competition binding), G2019S mutant; details: read-out: Residual active values (%) LRRK2(G2019S); for remaining binding at 0.1 µM: 100 nM; for remaining binding at 0.5 µM: 500 nM
Chain of LRRK2 mutant (G2019S) (Q5S007 whole entry G2019S, looked up): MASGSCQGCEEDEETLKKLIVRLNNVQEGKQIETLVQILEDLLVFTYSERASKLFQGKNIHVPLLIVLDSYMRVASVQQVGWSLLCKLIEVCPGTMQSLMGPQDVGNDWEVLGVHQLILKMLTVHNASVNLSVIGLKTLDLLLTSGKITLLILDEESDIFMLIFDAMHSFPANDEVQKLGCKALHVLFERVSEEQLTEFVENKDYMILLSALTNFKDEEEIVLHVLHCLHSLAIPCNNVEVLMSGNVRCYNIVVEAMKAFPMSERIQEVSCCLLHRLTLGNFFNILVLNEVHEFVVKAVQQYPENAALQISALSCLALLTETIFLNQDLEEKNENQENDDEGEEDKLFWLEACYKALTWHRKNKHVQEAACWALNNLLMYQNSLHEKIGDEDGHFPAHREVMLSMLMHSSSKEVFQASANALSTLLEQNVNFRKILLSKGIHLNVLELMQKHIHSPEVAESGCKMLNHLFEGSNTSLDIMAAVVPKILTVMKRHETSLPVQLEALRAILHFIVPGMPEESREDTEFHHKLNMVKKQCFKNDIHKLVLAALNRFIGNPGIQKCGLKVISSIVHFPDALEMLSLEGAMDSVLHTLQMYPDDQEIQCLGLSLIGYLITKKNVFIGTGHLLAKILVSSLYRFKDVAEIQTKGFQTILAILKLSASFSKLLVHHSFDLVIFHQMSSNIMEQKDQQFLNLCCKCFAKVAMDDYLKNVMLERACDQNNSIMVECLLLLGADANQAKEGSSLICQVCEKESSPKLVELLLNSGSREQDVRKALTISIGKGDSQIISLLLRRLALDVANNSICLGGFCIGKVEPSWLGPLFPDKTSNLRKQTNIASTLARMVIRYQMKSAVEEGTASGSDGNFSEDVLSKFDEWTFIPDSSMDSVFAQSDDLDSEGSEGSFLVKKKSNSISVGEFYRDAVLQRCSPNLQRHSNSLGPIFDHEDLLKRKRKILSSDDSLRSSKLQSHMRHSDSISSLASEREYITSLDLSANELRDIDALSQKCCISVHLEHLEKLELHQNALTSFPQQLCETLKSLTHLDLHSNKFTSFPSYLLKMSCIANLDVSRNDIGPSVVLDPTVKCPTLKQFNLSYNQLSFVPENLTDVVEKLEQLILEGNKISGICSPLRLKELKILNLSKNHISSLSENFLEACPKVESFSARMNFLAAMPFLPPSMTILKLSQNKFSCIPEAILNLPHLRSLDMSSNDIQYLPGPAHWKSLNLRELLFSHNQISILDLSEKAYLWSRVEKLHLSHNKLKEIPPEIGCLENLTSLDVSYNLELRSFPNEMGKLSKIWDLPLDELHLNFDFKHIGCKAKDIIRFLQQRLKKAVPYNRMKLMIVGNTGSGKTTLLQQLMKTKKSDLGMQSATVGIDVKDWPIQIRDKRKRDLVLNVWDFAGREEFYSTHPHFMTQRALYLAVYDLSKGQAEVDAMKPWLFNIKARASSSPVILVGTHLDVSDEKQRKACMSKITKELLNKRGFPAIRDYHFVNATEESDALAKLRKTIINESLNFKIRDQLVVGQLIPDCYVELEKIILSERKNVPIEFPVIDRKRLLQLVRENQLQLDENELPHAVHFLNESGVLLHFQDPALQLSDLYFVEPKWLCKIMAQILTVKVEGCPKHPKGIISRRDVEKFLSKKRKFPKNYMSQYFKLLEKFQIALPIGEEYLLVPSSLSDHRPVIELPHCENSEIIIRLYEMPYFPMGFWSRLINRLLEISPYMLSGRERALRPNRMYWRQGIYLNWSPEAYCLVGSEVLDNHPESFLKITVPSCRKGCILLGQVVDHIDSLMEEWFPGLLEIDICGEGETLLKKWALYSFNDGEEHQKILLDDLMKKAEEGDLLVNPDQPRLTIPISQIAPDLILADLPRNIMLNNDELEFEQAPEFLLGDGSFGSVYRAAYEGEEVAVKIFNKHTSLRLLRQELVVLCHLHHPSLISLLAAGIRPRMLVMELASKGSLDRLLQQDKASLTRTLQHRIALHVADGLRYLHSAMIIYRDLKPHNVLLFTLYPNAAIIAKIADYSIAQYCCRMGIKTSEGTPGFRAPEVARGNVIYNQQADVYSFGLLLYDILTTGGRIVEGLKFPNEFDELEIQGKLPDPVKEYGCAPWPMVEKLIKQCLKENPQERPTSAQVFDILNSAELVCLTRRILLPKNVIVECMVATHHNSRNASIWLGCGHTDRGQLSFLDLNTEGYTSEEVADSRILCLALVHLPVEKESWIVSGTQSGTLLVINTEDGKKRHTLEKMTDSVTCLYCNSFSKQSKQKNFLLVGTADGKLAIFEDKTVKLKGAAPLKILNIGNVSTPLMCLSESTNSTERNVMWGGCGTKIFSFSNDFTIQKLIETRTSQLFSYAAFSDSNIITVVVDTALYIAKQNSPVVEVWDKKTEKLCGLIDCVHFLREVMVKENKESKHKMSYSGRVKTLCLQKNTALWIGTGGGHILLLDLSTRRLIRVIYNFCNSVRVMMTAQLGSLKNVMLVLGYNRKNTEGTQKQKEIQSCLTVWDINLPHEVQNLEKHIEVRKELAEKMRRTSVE
Protocol: (§1) In order to identify the activity inhibitory effect on the LRRK2 wild-type and LRRK2 mutant (G2019S) kinase of the example compound according to the present disclosure, BL21-derived E. coli bacteria (E. coli) were cultured in a 24-well plate until the growth phase (log phase). After culturing, T7 phage tagged with LRRK2 wild-type or LRRK2 mutant (G2019S) was used to infect the multiplicity of infection (MOI) at 0.4. Thereafter, the E. coli bacteria were stirred at 32° C. for 90 to 150 minutes to allow dissolution. The lysate of E. coli bacteria was centrifuged (6,000×g) and filtered (0.2 μm), and the obtained tagged T7 phage […] a DNA-tagged kinase protein (LRRK2 or LRRK2 G2019S) was obtained.
(§2) After blocking the biotinylated ligand with extra biotin, it is washed with Pierce's buffer, SeaBlock (1% BSA, 0.05% Tween 20, 1 mM DTT) to remove unbound ligand and reduce non-specific binding.
(§3) The compound was prepared at a concentration of 40× in 100% DMSO and used after dilution, and all binding reactions were performed in a final volume of 0.02 ml in a 384-well plate.
(§4) The activity inhibitory effect on the LRRK2 wild-type and LRRK2 mutant (G2019S) kinases of the example compounds according to the present disclosure was measured and shown in Table 10 below.

LRRK2 wild-type = LRRK2 wild-type (Homo sapiens (Human), UniProt Q5S007); assay: Evaluation of inhibitory activity against LRRK2 (affinity bead competition binding), wild-type; details: read-out: Residual active values (%) LRRK2; for remaining binding at 0.1 µM: 100 nM; for remaining binding at 0.5 µM: 500 nM
Chain of LRRK2 wild-type (Q5S007 whole entry, looked up): as the sequence (Q5S007 whole entry G2019S, looked up) above, with S2019G counted along it
Protocol: as §1, §2, §3, §4

[2] = system: gastric cancer cell line AGS; assay: Cancer cell proliferation inhibitory activity evaluation 2 (CCK-8), AGS; assay type: cell-based; details: Homo sapiens, read-out: Cancer cell proliferation inhibitory activity AGS
MLK3 = MLK3 (Homo sapiens (Human), UniProt Q16584); assay: Evaluation of inhibitory activity of enzyme units, MLK3 ([γ-33P]-ATP filter assay); details: read-out: IC50(nM) MLK3
Chain of MLK3 (Q16584 whole entry, looked up): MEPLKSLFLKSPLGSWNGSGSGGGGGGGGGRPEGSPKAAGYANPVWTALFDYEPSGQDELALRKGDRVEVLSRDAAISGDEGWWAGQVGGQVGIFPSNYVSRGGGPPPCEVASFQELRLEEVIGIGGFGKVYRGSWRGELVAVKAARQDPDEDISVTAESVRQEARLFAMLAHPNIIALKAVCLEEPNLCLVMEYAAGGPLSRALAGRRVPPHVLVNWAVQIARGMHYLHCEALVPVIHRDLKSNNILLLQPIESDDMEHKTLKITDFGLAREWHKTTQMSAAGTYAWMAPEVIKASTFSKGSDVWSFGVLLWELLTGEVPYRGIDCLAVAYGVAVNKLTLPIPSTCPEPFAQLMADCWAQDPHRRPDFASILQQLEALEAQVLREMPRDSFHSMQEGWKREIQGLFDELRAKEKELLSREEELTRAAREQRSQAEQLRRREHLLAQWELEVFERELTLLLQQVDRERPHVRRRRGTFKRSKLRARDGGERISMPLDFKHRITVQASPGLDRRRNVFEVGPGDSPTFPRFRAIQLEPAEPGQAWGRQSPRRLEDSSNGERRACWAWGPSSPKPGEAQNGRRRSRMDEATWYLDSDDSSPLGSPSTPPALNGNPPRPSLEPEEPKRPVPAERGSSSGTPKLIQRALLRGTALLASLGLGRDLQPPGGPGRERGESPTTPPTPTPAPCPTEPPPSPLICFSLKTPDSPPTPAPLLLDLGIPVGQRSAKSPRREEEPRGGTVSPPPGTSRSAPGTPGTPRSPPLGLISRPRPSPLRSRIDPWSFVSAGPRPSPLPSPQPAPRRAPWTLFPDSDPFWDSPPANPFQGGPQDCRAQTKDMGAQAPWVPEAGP

[3] = system: acute myeloid leukemia cell line U937; assay: Cancer cell proliferation inhibitory activity evaluation 2 (CCK-8), U937; assay type: cell-based; details: Homo sapiens, read-out: Cancer cell proliferation inhibitory activity U937
MLK1 = MLK1 (Homo sapiens (Human), UniProt P80192); assay: Evaluation of inhibitory activity of enzyme units, MLK1 ([γ-33P]-ATP filter assay); assay type: biochemical
Chain of MLK1 (P80192 whole entry, looked up): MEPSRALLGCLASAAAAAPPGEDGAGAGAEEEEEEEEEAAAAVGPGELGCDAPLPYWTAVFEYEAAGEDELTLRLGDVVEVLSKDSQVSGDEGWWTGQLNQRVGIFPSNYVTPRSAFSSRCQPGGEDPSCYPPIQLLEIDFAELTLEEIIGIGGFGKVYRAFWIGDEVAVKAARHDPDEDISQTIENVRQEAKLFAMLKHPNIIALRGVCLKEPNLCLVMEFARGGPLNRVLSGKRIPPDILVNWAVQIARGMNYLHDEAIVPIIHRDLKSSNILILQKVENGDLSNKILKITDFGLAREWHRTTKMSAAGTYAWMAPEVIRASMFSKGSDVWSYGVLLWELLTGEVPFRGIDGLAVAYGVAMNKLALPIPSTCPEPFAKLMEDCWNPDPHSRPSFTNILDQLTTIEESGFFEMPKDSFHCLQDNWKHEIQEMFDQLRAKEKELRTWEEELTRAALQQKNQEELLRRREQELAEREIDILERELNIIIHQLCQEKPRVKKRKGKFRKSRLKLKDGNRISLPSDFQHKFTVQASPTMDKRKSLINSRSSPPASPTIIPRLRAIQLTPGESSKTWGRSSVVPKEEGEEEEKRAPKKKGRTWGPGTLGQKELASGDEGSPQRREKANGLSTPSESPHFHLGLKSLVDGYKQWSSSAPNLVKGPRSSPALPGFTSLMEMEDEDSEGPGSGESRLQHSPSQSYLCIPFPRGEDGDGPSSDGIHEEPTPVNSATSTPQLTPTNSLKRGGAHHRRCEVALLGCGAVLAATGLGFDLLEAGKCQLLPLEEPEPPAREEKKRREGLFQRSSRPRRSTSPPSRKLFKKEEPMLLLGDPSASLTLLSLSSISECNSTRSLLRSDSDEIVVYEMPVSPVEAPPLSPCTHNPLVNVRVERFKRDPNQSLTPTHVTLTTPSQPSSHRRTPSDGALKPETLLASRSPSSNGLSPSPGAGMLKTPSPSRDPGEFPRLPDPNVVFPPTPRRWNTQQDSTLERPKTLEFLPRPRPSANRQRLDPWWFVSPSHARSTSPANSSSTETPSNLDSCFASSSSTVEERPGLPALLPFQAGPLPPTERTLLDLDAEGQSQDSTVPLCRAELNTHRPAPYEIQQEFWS

[4] = system: human lung cancer cell line A549; assay: Cancer cell proliferation inhibitory activity evaluation 2 (CCK-8), A549; assay type: cell-based
MLK2 = MLK2 (Homo sapiens (Human), UniProt Q02779); assay: Evaluation of inhibitory activity of enzyme units, MLK2 ([γ-33P]-ATP filter assay); assay type: biochemical
[5] = system: gastric cancer cell line Hs746T; assay: Cancer cell proliferation inhibitory activity evaluation 2 (CCK-8), Hs746T; assay type: cell-based; details: Homo sapiens
[6] = 72 h, read-out: Cancer cell proliferation inhibitory activity Jurkat
[7] = 10 μM, 72 hours, CCK-8, read-out: Cancer cell proliferation inhibitory activity Jurkat
[8] = U-937, 10 μM, 72 hours, CCK-8 (Table 3)

CCS(=O)(=O)N1CC[C@H](Nc2c(Br)cnc3[nH]c(-c4cc(C)n(-c5cccc(S(=O)(=O)N6CCOCC6)c5)c4C)nc23)C1 [Example 11, (S)-6-bromo-2-(2,5-dimethyl-1-(3-(morpholinosulfonyl)phenyl)-1H-pyrrol-3-yl)-N-(1-(ethylsulfonyl)pyrrolidine-3-yl)-3H-imidazo[4,5-b]pyridine-7-amine]
inhibition at 10 µM [1, 6]: > 50%
Relative degree of expression inhibition (%) Fibronectin-1 (Fibronectin-1): 86.85%
Relative degree of expression inhibition (%) α-SMA (α-SMA): 24.73%
Relative degree of expression inhibition (%) TGF-β1 (TGF-β1): 99.40%
remaining binding at 0.1 µM (LRRK2 mutant (G2019S)): 7.9%
remaining binding at 0.5 µM (LRRK2 mutant (G2019S)): 1.7%
remaining binding at 0.1 µM (LRRK2 wild-type): 28%
remaining binding at 0.5 µM (LRRK2 wild-type): 6.9%
inhibition at 10 µM ([2]; 72 h): > 50%
IC50 (MLK3): 7 nM
inhibition at 10 µM ([3]; U-937, 72 h): 10 to 50%

CCS(=O)(=O)N1CC[C@H](Nc2c(Br)cnc3nc(-c4cc(C)n(-c5cccc(S(=O)(=O)NC)c5)c4C)[nH]c23)C1 [Example 18, (S)-3-(3-(6-bromo-7-((1-(ethylsulfonyl)pyrrolidine-3-yl)amino)-1H-imidazo[4,5-b]pyridine-2-yl)-2,5-dimethyl-1H-pyrrol-1-yl)-N-methylbenzenesulfonamide]
IC50 (MLK1): 75 nM
inhibition at 10 µM ([4]; A549, 72 h, read-out: Cancer cell proliferation inhibitory activity A549): 10 to 50%
inhibition at 10 µM ([2]; 72 h): > 50%
IC50 (MLK2): 109 nM
IC50 (MLK3): 13 nM
inhibition at 10 µM ([5]; 72 h, read-out: Cancer cell proliferation inhibitory activity Hs746T): 10 to 50%

CCS(=O)(=O)N1CC[C@H](Nc2c(Br)cnc3nc(-c4cc(C)n(-c5cccc(C(N)=O)c5)c4C)[nH]c23)C1 [Example 20, (S)-3-(3-(6-bromo-7-((1-(ethylsulfonyl)pyrrolidine-3-yl)amino)-1H-imidazo[4,5-b]pyridine-2-yl)-2,5-dimethyl-1H-pyrrol-1-yl)benzamide]
IC50 (MLK1): 31 nM
inhibition at 10 µM [1, 6]: 10 to 50%
inhibition at 10 µM ([2]; 72 h): 10 to 50%
IC50 (MLK2): 217 nM
IC50 (MLK3): 14 nM
inhibition at 10 µM ([3]; U-937, 72 h): < 10%

CCS(=O)(=O)N1CC[C@H](Nc2c(Br)cnc3nc(-c4cc(C)n(-c5cccc(OCCOC)c5)c4C)[nH]c23)C1 [Example 21, (S)-6-bromo-N-(1-(ethylsulfonyl)pyrrolidine-3-yl)-2-(1-(3-(2-methoxyethoxy)phenyl)-2,5-dimethyl-1H-pyrrol-3-yl)-1H-imidazo[4,5-b]pyridine-7-amine]
IC50 (MLK1): 75 nM
inhibition at 10 µM [1, 6]: 10 to 50%
inhibition at 10 µM ([2]; 72 h): > 50%
IC50 (MLK2): 243 nM
IC50 (MLK3): 15 nM
inhibition at 10 µM ([3]; U-937, 72 h): 10 to 50%

CCS(=O)(=O)N1CC[C@H](Nc2c(Br)cnc3nc(-c4cc(C)n(-c5ccc(S(N)(=O)=O)cc5)c4C)[nH]c23)C1 [Example 24, (S)-4-(3-(6-bromo-7-((1-(ethylsulfonyl)pyrrolidine-3-yl)amino)-1H-imidazo[4,5-b]pyridine-2-yl)-2,5-dimethyl-1H-pyrrol-1-yl)benzenesulfonamide]
IC50 (MLK1): 29 nM
inhibition at 10 µM [1, 6]: 10 to 50%
inhibition at 10 µM ([2]; 72 h): 10 to 50%
IC50 (MLK2): 95 nM
IC50 (MLK3): 20 nM
inhibition at 10 µM ([3]; U-937, 72 h): 10 to 50%

CCS(=O)(=O)N1CC[C@H](Nc2c(Br)cnc3[nH]c(-c4cc(C)n(-c5ccccc5)c4C)nc23)C1 [Example 25, (S)-6-bromo-2-(2,5-dimethyl-1-phenyl-1H-pyrrol-3-yl)-N-(1-(ethylsulfonyl)pyrrolidine-3-yl)-3H-imidazo[4,5-b]pyridine-7-amine]
IC50 (MLK1): 71 nM
inhibition at 10 µM [1, 7]: > 50%
remaining binding at 0.1 µM (LRRK2 mutant (G2019S)): 15%
remaining binding at 0.5 µM (LRRK2 mutant (G2019S)): 3.3%
remaining binding at 0.1 µM (LRRK2 wild-type): 49%
remaining binding at 0.5 µM (LRRK2 wild-type): 17%
inhibition at 10 µM ([2]; 10 μM, 72 hours, CCK-8): > 50%
IC50 (MLK2): 250 nM
IC50 (MLK3): 26 nM
inhibition at 10 µM [3, 8]: 10 to 50%

Cc1cc(-c2nc3c(Nc4cccc(S(N)(=O)=O)c4)c(Br)cnc3[nH]2)c(C)n1-c1ccc(C(=O)N2CCOCC2)cc1 [Example 27, 3-((6-bromo-2-(2,5-dimethyl-1-(4-(morpholine-4-carbonyl)phenyl)-1H-pyrrol-3-yl)-3H-imidazo[4,5-b]pyridine-7-yl)amino)benzenesulfonamide]
IC50 (MLK1): 176 nM
inhibition at 10 µM [1, 7]: < 10%
inhibition at 10 µM ([2]; 10 μM, 72 hours, CCK-8): 10 to 50%
IC50 (MLK2): 178 nM
IC50 (MLK3): 20 nM
inhibition at 10 µM [3, 8]: < 10%

Cc1cc(-c2nc3c(Nc4cccc(S(N)(=O)=O)c4)c(Br)cnc3[nH]2)c(C)n1-c1cc(S(N)(=O)=O)ccc1Cl [Example 36, 3-(3-(6-bromo-7-((3-sulfamoylphenyl)amino)-3H-imidazo[4,5-b]pyridine-2-yl)-2,5-dimethyl-1H-pyrrole-1-yl)-4-chlorobenzenesulfonamide]
inhibition at 10 µM [1, 7]: < 10%
Relative degree of expression inhibition (%) Fibronectin-1 (Fibronectin-1): 82.94%
Relative degree of expression inhibition (%) α-SMA (α-SMA): 79.46%
Relative degree of expression inhibition (%) TGF-β1 (TGF-β1): 66.72%
inhibition at 10 µM ([2]; 10 μM, 72 hours, CCK-8): < 10%
IC50 (MLK3): 46 nM
inhibition at 10 µM [3, 8]: < 10%

CCS(=O)(=O)N1CC[C@H](Nc2ccnc3nc(-c4cc(C)n(-c5ccc(OCCN6CCOCC6)cc5)c4C)[nH]c23)C1 [Example 53, (S)-2-(2,5-dimethyl-1-(4-(2-morpholinoethoxy)phenyl)-1H-pyrrol-3-yl)-N-(1-(ethylsulfonyl)pyrrolidine-3-yl)-1H-imidazo[4,5-b]pyridine-7-amine]
IC50 (MLK1): 10600 nM
Relative degree of expression inhibition (%) Fibronectin-1 (Fibronectin-1): 69.92%
Relative degree of expression inhibition (%) α-SMA (α-SMA): 74.74%
Relative degree of expression inhibition (%) TGF-β1 (TGF-β1): 33.15%
IC50 (MLK3): 23200 nM

CCS(=O)(=O)N1CC[C@H](Nc2c(Br)cnc3[nH]c(-c4cc(C)n(-c5cccc(C(=O)O)c5)c4C)nc23)C1 [Example 58, (S)-3-(3-(6-bromo-7-((1-(ethylsulfonyl)pyrrolidine-3-yl)amino)-3H-imidazo[4,5-b]pyridine-2-yl)-2,5-dimethyl-1H-pyrrol-1-yl)benzoic acid]
inhibition at 10 µM [1, 7]: < 10%
Relative degree of expression inhibition (%) Fibronectin-1 (Fibronectin-1): 69.83%
Relative degree of expression inhibition (%) α-SMA (α-SMA): 66.53%
Relative degree of expression inhibition (%) TGF-β1 (TGF-β1): 48.93%
remaining binding at 0.1 µM (LRRK2 mutant (G2019S)): 1.4%
remaining binding at 0.5 µM (LRRK2 mutant (G2019S)): 0.2%
inhibition at 10 µM ([4]; A549, 10 μM, 72 hours, CCK-8, read-out: Cancer cell proliferation inhibitory activity A549): < 10%
remaining binding at 0.1 µM (LRRK2 wild-type): 5%
remaining binding at 0.5 µM (LRRK2 wild-type): 0.7%
inhibition at 10 µM ([2]; 10 μM, 72 hours, CCK-8): < 10%
IC50 (MLK3): 53 nM
inhibition at 10 µM [3, 8]: < 10%
inhibition at 10 µM ([5]; 10 μM, 72 hours, CCK-8, read-out: Cancer cell proliferation inhibitory activity Hs746T): < 10%

CCS(=O)(=O)N1CC[C@H](Nc2c(Br)cnc3nc(-c4cc(C)n(-c5cc(NC(=O)CN6CCN(C)CC6)ccc5C)c4C)[nH]c23)C1 [Example 76, N-(3-(3-(6-bromo-7-(((S)-1-(ethylsulfonyl)pyrrolidine-3-yl)amino)-1H-imidazo[4,5-b]pyridine-2-yl)-2,5-dimethyl-1H-pyrrol-1-yl)-4-methylphenyl)-2-(4-methylpiperazine-1-yl) acetamide]
Relative degree of expression inhibition (%) Fibronectin-1 (Fibronectin-1): 93.95%
Relative degree of expression inhibition (%) α-SMA (α-SMA): 69.54%
Relative degree of expression inhibition (%) TGF-β1 (TGF-β1): 121.79%
remaining binding at 0.1 µM (LRRK2 mutant (G2019S)): 0.9%
remaining binding at 0.5 µM (LRRK2 mutant (G2019S)): 0.1%
remaining binding at 0.1 µM (LRRK2 wild-type): 3.6%
remaining binding at 0.5 µM (LRRK2 wild-type): 1.1%
IC50 (MLK3): 63 nM
